Test results taken from patent US11925622B2, “Role of novel carbazole linked 1, 2, 3- triazole analogs in alleviating methylglyoxal-mediated late diabetic vascular complications” (priority 2021, dated 2024).
Counter-ions that a name gives are not always drawn. Values belong to the compound of their own block, whether it stands above or below them.

Columns and labels:
[1] = tested on: MGO-mediated BSA glycation; test: In vitro antiglycation activity, MGO-BSA glycation assay (fluorescence); assay type: biochemical, bovine; conditions: for IC50 / % inhibition of MGO-BSA glycation: BSA 10 mg/mL, MGO 0.1 M, 24 h, 37° C.; for IC50: read-out: IC50 antiglycation, MGO-BSA model; for % inhibition of MGO-BSA glycation: compounds at 1 mM
Description: In vitro antiglycation activity: The MGO-BSA assay was performed as per optimized protocol of Jahan, H. et al with slight modifications. Initially, the antiglycation activity of parent compound carbazole (1), and carbazole-linked 1,2,3 triazoles 2-16 were identified at 1 mM using MGO-BSA model. […] BSA (10 mg/mL) incubated with MGO (0.1 M) for 24 h at 37° C. using phosphate-azide buffer (0.1 mM), served as a positive control. The wells with BSA only were taken as negative control. Whereas, rutin and quercetin were used as standard antiglycation agents. After 24 h of incubation, the fluorescence of each well was measured by using microplate reader (Varioskan lux, Thermo Fisher Scientific, 319 Scientific, USA) at 355 nm excitation, and 460 nm emission.
The % inhibition of MGO-BSA-mediated by carbazole-triazole derivatives was quantified by using the following formula: […]
The IC50 of active antiglycation compounds were identified by using EZ-FIT Enzyme Kinetics Program (Perrella Scientific Inc., Amherst, USA).

THP-1 cell line = test: Cytotoxicity, WST-1 assay in human monocytes; assay type: cell-based; conditions: 24 h
Description: (§1) Cytotoxicity analysis: The cytotoxic profile of the compounds was determined by using the MTT assay in hepatocytes (HepG2 cell line), and WST-1 assay in human monocytes (THP-1 cell line) as per the manufacturer's protocols. […] Doxorubicin treated cells were used as a positive control, while cells with culture medium served as negative control. Wells with culture medium served as a blank. Followed by the incubation, 20 μL of MTT were added in each well. […] The absorbance was measured by using 540, and 450 nm, respectively ([…] reader, Thermo Fisher, 319 Scientific, USA).

HepG2 cell line = test: Cytotoxicity, MTT assay in hepatocytes; assay type: cell-based, human; conditions: 24 h
Description: as §1

[2] = tested on: MGO-AGEs-induced ROS in THP-1 monocytes; test: Anti-oxidation activity, DCFH-DA assay of MGO-AGEs-mediated ROS in monocytes; assay type: cell-based, human; conditions: for ROS (DCF fluorescence) in MGO-AGEs-treated monocytes: 100 μM (maximum inhibition), MGO-AGEs 50 μg/mL, 24 h
Description: Anti-oxidation activity: The measurement of effect of derivatives on AGEs-mediated ROS was based on the previously reported protocol of Soumyarani and colleagues with slight amendments. Initially, 1×10^6 monocytes/mL were loaded in sterile 96-well flat bottom black fluorescent plate, and pre-incubated with DCFH-DA (10 μM; Sigma-Aldrich Chemical Corporation, St. Louis, Missouri, USA) for 45 min at 37° C. Followed by the incubation, antiglycating, non-toxic carbazole-linked triazole derivatives (10, 30, 50, and 100 μM) were added to the wells for 1 h before co-treatment of cells with MGO-AGEs (50 μg/mL) for next 24 h. Next, the fluorometric measurement of converted DCFH into oxidized DCF product was carried out via spectrofluorimeter (Varioskanmicroplate reader, Thermo Fisher Scientific, USA) using 485 nm excitation and 520 nm emission wavelengths. Various controls were plated in each experiment. Wells containing culture RPMI with MGO-AGEs (50 μg/mL) and H2O2 ([…]) served as positive controls, while cells containing BSA were taken as negative control.

[3] = tested on: NF-κB (p65) translocation in monocytes; test: NF-κB (p65) translocation analysis by immunocytochemistry; assay type: cell-based, human; conditions: compounds 100 μM, 1 h pre-incubation; AGEs 50 μg/mL 1 h; MGO-AGEs control 75 RFU, BSA 11 RFU
Description: NF-κB (p^65) translocation analysis: The monocytes at the density of 1×10^6 cells/mL were pre-incubated with compounds (100 μM) for an h, and then co-incubated with AGEs (50 μg/mL) for another 1 h in a 24-well plate at 37° C. Following treatment, cells were fixed with paraformaldehyde (4% PFA; 10 min), and permeabilized with Triton X-100 (0.2%; 10 min). Next, the cells were rinsed with chilled PBS three times, and incubated with bovine serum albumin (1% BSA; 1 h) to block the non-specific binding sites. Cells were exposed to primary antibody against NF-κB (p 65) (1:300 dilution, Thermo Fisher Scientific, Waltham, MA, USA) for overnight at 4° C. Subsequently followed by washing the cells with chilled PBS three times, secondary antibody (polyclonal fluorescein isothiocyanate (FITC)-conjugated antibody) to rabbit IgG (1:1000 dilution, Abeam, Cambridge, UK) was used.
Nuclei were counterstained by using DAPI (Thermo Fisher Scientific, Waltham, MA, USA). The BSA-treated monocytes (50 μg/mL) had served as a negative control, while AGEs-treated monocytes (50 μg/mL) as positive control. All the images were taken by using Nikon microscope (Nikon, Tokyo, Japan). The quantification of images was carried out via ImageJ (Image processing and analysis in Java-NIH).

COX-2 = COX-2 protein levels analysis by immunoblotting; assay type: cell-based; conditions: human monocytes co-treated with MGO-AGEs 50 μg/mL; immunoblot densitometry
Description: COX-2 protein levels analysis: The 50 μg/mL of protein was loaded onto 10% sodium dodecyl sulfate-polymerized acrylamide gel electrophoresis (SDS-PAGE), and transferred to nitrocellulose membranes using power blotter XL System (Invitrogen; Thermo Fisher Scientific). Subsequently, the membrane was incubated for 1 h in 1% bovine serum albumin in PBS with 0.1% Tween-20 to block unspecified binding. The protein bands of the membrane were probed with primary monoclonal antibody COX-2 (Thermo Fisher Scientific, Waltham, MA, USA), and B-actin (Cloud-Clone Corp., Wuhan, China) for overnight at 4° C. Following incubation, the membrane was rinsed with tris buffer saline tween (TBST) three times, and then exposed to secondary antibody (HRP mouse mono anti-rabbit IgG; Abeam, Cambridge, UK) at room temperature for an hour. The washing was again carried three times with TBST, and then the membrane was exposed to ECL (Sangon biotech, Shanghai, China) to visualize the bands in Western Blot Detection System (Thermo Fisher Scientific, Waltham, MA, USA). The densitometry of immuno-positive COX-2, and β-actin bands was used by Image J.

Compound: Cc1cccc(C(=O)Cn2cc(Cn3c4ccccc4c4ccccc43)nn2)c1 [Compound 8, 2-(4-((9H-Carbazole-9-yl)methyl)-1H-1,2,3-triazole-1-y1)-1-(m-tolyl)ethan-1-one]
antiglycation activity in MGO-BSA model (in words) [1]: good activity
IC50 [1]: 130 ± 10 µM
% inhibition of MGO-BSA glycation [1]: 79%
% Inhibition ± SD THP-1 (THP-1 cell line; 1 μM): 35.5 ± 1.1%
% Inhibition ± SD THP-1 (THP-1 cell line; 10 μM): 42.1 ± 0.4%
% Inhibition ± SD THP-1 (THP-1 cell line; 30 μM): 43 ± 4.3%
% Inhibition ± SD THP-1 (THP-1 cell line; 50 μM): 43.9 ± 0.7%
% Inhibition ± SD THP-1 (THP-1 cell line; 100 μM): 46.7 ± 2.0%
% Inhibition ± SD THP-1 (THP-1 cell line; 250 μM): 73.6 ± 1.9%
% Inhibition ± SD THP-1 (THP-1 cell line; 500 μM): 99.5 ± 0.3%
% Inhibition ± SD Hep-G2 (HepG2 cell line; 1 μM): 6.4 ± 2.2%
% Inhibition ± SD Hep-G2 (HepG2 cell line; 10 μM): 8.7 ± 4.8%
% Inhibition ± SD Hep-G2 (HepG2 cell line; 30 μM): 47.3 ± 2.2%
% Inhibition ± SD Hep-G2 (HepG2 cell line; 50 μM): 54.5 ± 0.7%
% Inhibition ± SD Hep-G2 (HepG2 cell line; 100 μM): 66.9 ± 1.9%
% Inhibition ± SD Hep-G2 (HepG2 cell line; 250 μM): 74.1 ± 1.9%
% Inhibition ± SD Hep-G2 (HepG2 cell line; 500 μM): 86.7 ± 5.8%

Compound: O=C(Cn1cc(Cn2c3ccccc3c3ccccc32)nn1)c1cccc([N+](=O)[O-])c1 [Compound 11, 2-(4-((9H-Carbazole-9-yl)methyl)-1H-1,2,3-triazole-1-y1)-1-(3-nitrophenyl)ethan-1-one]
antiglycation activity in MGO-BSA model (in words) [1]: good activity
IC50 [1]: 147 ± 10 µM
% inhibition of MGO-BSA glycation [1]: 75.7%
ROS (DCF fluorescence) in MGO-AGEs-treated monocytes [2]: 9.06 RFU

IC50 [1]: 333 ± 10 µM
Compound: c1ccc2c(c1)c1ccccc1n2Cc1cn(Cc2ccc(Cn3cc(Cn4c5ccccc5c5ccccc54)nn3)cc2)nn1 [Compound 15, 1,4-Bis ((4-((9H-carbazol-9-yl)methyl)-1H-1,2,3-triazol-1yl)methyl) benzene]
antiglycation activity in MGO-BSA model (in words) [1]: good activity
% inhibition of MGO-BSA glycation [1]: 71%
ROS (DCF fluorescence) in MGO-AGEs-treated monocytes [2]: 10.6 RFU

Compound: COc1cccc2c1C(=O)c1c(O)c3c(c(O)c1C2=O)C[C@@](O)(C(=O)CO)C[C@@H]3OC1C[C@H](N)[C@H](O)[C@H](C)O1 (stereo partly drawn) [Doxorubicin, (7S,9S)-7-[(4S,5S,6S)-4-amino-5-hydroxy-6-methyloxan-2-yl]oxy-6,9,11-trihydroxy-9-(2-hydroxyacetyl)-4-methoxy-8,10-dihydro-7H-tetracene-5,12-dione; hydrochlorid, reference compound]
inhibition at 1 µM (THP-1 cell line; Homo sapiens, THP-1, 1 μM, read-out: % Inhibition ± SD THP-1): 34.2%
inhibition at 10 µM (THP-1 cell line; Homo sapiens, THP-1, 10 μM, read-out: % Inhibition ± SD THP-1): 60.2 ± 0.6%
inhibition at 30 µM (THP-1 cell line; Homo sapiens, THP-1, 30 μM, read-out: % Inhibition ± SD THP-1): 63.2 ± 0.4%
inhibition at 50 µM (THP-1 cell line; Homo sapiens, THP-1, 50 μM, read-out: % Inhibition ± SD THP-1): 64.5 ± 2.4%
inhibition at 100 µM (THP-1 cell line; Homo sapiens, THP-1, 100 μM, read-out: % Inhibition ± SD THP-1): 67.3 ± 0.2%
inhibition at 250 µM (THP-1 cell line; Homo sapiens, THP-1, 250 μM, read-out: % Inhibition ± SD THP-1): 76.4 ± 10%
inhibition at 500 µM (THP-1 cell line; Homo sapiens, THP-1, 500 μM, read-out: % Inhibition ± SD THP-1): 94.3 ± 2.3%
inhibition at 1 µM (HepG2 cell line; Homo sapiens, HepG2, 1 μM, read-out: % Inhibition ± SD Hep-G2): 30.4 ± 5.3%
inhibition at 10 µM (HepG2 cell line; Homo sapiens, HepG2, 10 μM, read-out: % Inhibition ± SD Hep-G2): 28.3 ± 4.8%
inhibition at 30 µM (HepG2 cell line; Homo sapiens, HepG2, 30 μM, read-out: % Inhibition ± SD Hep-G2): 64 ± 0.4%
inhibition at 50 µM (HepG2 cell line; Homo sapiens, HepG2, 50 μM, read-out: % Inhibition ± SD Hep-G2): 58 ± 2.4%
inhibition at 100 µM (HepG2 cell line; Homo sapiens, HepG2, 100 μM, read-out: % Inhibition ± SD Hep-G2): 62.6 ± 0.2%
inhibition at 250 µM (HepG2 cell line; Homo sapiens, HepG2, 250 μM, read-out: % Inhibition ± SD Hep-G2): 69.8 ± 10%
inhibition at 500 µM (HepG2 cell line; Homo sapiens, HepG2, 500 μM, read-out: % Inhibition ± SD Hep-G2): 87.1 ± 2.2%

Compound: O=C(Cn1cc(Cn2c3ccccc3c3ccccc32)nn1)c1ccccc1 [Compound 2, 2-(4-((9H-Carbazole-9-yl)methyl)-1H-1,2,3-triazole-1-y1)-1-phenylethan-1-one]
antiglycation activity in MGO-BSA model (in words) [1]: weak potential
IC50 [1]: 797 ± 7 µM
% inhibition of MGO-BSA glycation [1]: 58%
antioxidant activity / ROS production inhibition (in words) ([2]; MGO-AGEs 50 μg/mL-treated THP-1 monocytes): inactive

IC50 [1]: 138 ± 4 µM
Compound: O=c1c(O)c(-c2ccc(O)c(O)c2)oc2cc(O)cc(O)c12 [Quercetin, 2-(3,4-dihydroxyphenyl)-3,5,7-trihydroxy-4H-chromen-4-one, reference compound]
% inhibition of MGO-BSA glycation [1]: 58%
ROS (DCF fluorescence) in MGO-AGEs-treated monocytes [2]: 8.39 RFU
NF-κB translocation in MGO-AGEs-treated monocytes [3]: 55 RFU
reduction in COX-2 levels compared to MGO-BSA-treated cells (COX-2): 1.31 fold

Compound: c1ccc2c(c1)[nH]c1ccccc12 [carbazole]
% inhibition of MGO-BSA glycation [1]: 36.7%

Compound: Cc1ccccc1C(=O)Cn1cc(Cn2c3ccccc3c3ccccc32)nn1 [Compound 7, 2-(4-((9H-Carbazole-9-yl)methyl)-1H-1,2,3-triazole-1-y1)-1-(o-tolyl)ethan-1-one]
antiglycation activity in MGO-BSA model (in words) [1]: good activity
IC50 [1]: 275 ± 5 µM
% inhibition of MGO-BSA glycation [1]: 72%
% Inhibition ± SD THP-1 (THP-1 cell line; 1 μM): 21 ± 8.8%
% Inhibition ± SD THP-1 (THP-1 cell line; 10 μM): 27 ± 4.2%
% Inhibition ± SD THP-1 (THP-1 cell line; 30 μM): 34.6 ± 6.5%
% Inhibition ± SD THP-1 (THP-1 cell line; 50 μM): 32.1 ± 0.4%
% Inhibition ± SD THP-1 (THP-1 cell line; 100 μM): 50.7 ± 5.3%
% Inhibition ± SD THP-1 (THP-1 cell line; 250 μM): 80.8 ± 5.1%
% Inhibition ± SD THP-1 (THP-1 cell line; 500 μM): 79.5 ± 5.8%
% Inhibition ± SD Hep-G2 (HepG2 cell line; 1 μM): 12.3 ± 3.7%
% Inhibition ± SD Hep-G2 (HepG2 cell line; 10 μM): 21.8 ± 4.7%
% Inhibition ± SD Hep-G2 (HepG2 cell line; 30 μM): 21.8 ± 1.5%
% Inhibition ± SD Hep-G2 (HepG2 cell line; 50 μM): 41.1 ± 3.5%
% Inhibition ± SD Hep-G2 (HepG2 cell line; 100 μM): 50.3 ± 3.9%
% Inhibition ± SD Hep-G2 (HepG2 cell line; 250 μM): 59.8 ± 15.5%
% Inhibition ± SD Hep-G2 (HepG2 cell line; 500 μM): 78.4 ± 2.2%
